In PubChem BioAssay (NCI):
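Step 1: Grow cells in 96-well plates. Step 2: Expose to compound for 48 hours at 5 concentrations. Step 3: Interpolate endpoints linearly; if unreached, use highest concentration. At the GI50, growth is halved. TGI is the concentration that stops growth completely.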

Columns and labels:
Test in all cases: DTP human tumour cell line panel, 48 h
SK-MEL-2 melanoma = tested on: SK-MEL-2 melanoma
MCF7 breast = tested on: MCF7 breast
SK-MEL-28 melanoma = tested on: SK-MEL-28 melanoma
SF-295 CNS = tested on: SF-295 CNS
RPMI-8226 leukemia = tested on: RPMI-8226 leukemia
HL-60(TB) leukemia = tested on: HL-60(TB) leukemia
HOP-92 NSCLC = tested on: HOP-92 NSCLC
SW-620 colon = tested on: SW-620 colon
COLO 205 colon = tested on: COLO 205 colon
ACHN renal = tested on: ACHN renal
SF-268 CNS = tested on: SF-268 CNS
OVCAR-8 ovarian = tested on: OVCAR-8 ovarian
HOP-62 NSCLC = tested on: HOP-62 NSCLC
HCT-15 colon = tested on: HCT-15 colon
NCI-H226 lung = tested on: NCI-H226 lung
HCC-2998 colon = tested on: HCC-2998 colon
MALME-3M melanoma = tested on: MALME-3M melanoma
NCI-H522 lung = tested on: NCI-H522 lung
PC-3 prostate = tested on: PC-3 prostate
786-0 renal = tested on: 786-0 renal
CAKI-1 renal = tested on: CAKI-1 renal
UACC-257 melanoma = tested on: UACC-257 melanoma
MDA-MB-231 breast = tested on: MDA-MB-231 breast
OVCAR-3 ovarian = tested on: OVCAR-3 ovarian
OVCAR-4 ovarian = tested on: OVCAR-4 ovarian
UO-31 renal = tested on: UO-31 renal
HCT-116 colon = tested on: HCT-116 colon
NCI/ADR-RES ovarian = tested on: NCI/ADR-RES ovarian
SK-MEL-5 melanoma = tested on: SK-MEL-5 melanoma
NCI-H23 lung = tested on: NCI-H23 lung
HS 578T breast = tested on: HS 578T breast
SNB-19 CNS = tested on: SNB-19 CNS
U251 CNS = tested on: U251 CNS
DU-145 prostate = tested on: DU-145 prostate
T-47D breast = tested on: T-47D breast
M14 melanoma = tested on: M14 melanoma
A498 renal = tested on: A498 renal
LOX IMVI melanoma = tested on: LOX IMVI melanoma
A549 NSCLC = tested on: A549 NSCLC
HT29 colon = tested on: HT29 colon
SNB-75 CNS = tested on: SNB-75 CNS
NCI-H460 lung = tested on: NCI-H460 lung
MOLT-4 leukemia = tested on: MOLT-4 leukemia
SN12C renal = tested on: SN12C renal
UACC-62 melanoma = tested on: UACC-62 melanoma
SK-OV-3 ovarian = tested on: SK-OV-3 ovarian
K-562 leukemia = tested on: K-562 leukemia
BT-549 breast = tested on: BT-549 breast
SR leukemia = tested on: SR leukemia
KM12 colon = tested on: KM12 colon
TK-10 renal = tested on: TK-10 renal
MDA-MB-468 breast = tested on: MDA-MB-468 breast
EKVX NSCLC = tested on: EKVX NSCLC
OVCAR-5 ovarian = tested on: OVCAR-5 ovarian
RXF 393 renal = tested on: RXF 393 renal
MDA-MB-435 = tested on: MDA-MB-435
SF-539 CNS = tested on: SF-539 CNS
CCRF-CEM leukemia = tested on: CCRF-CEM leukemia
IGROV1 ovarian = tested on: IGROV1 ovarian

CN1CCN(Cc2ccc(NC(=O)c3cncc(C#Cc4cnc5ccc(N[C@@H]6CCOC6)nn45)c3)cc2C(F)(F)F)CC1
GI50 (SK-MEL-2 melanoma): 173 nM | TGI (SK-MEL-2 melanoma): 318 nM | GI50 (MCF7 breast): 51.8 nM | TGI (MCF7 breast): 518 nM | GI50 (SK-MEL-28 melanoma): 193 nM | TGI (SK-MEL-28 melanoma): 629 nM | GI50 (SF-295 CNS): 88.8 nM | TGI (SF-295 CNS): 587 nM | GI50 (RPMI-8226 leukemia): 201 nM | TGI (RPMI-8226 leukemia): 1570 nM | GI50 (HL-60(TB) leukemia): 85.5 nM | TGI (HL-60(TB) leukemia): 759 nM | GI50 (HOP-92 NSCLC): 27.7 nM | TGI (HOP-92 NSCLC): 133 nM | GI50 (SW-620 colon): 94.4 nM | TGI (SW-620 colon): 603 nM | GI50 (COLO 205 colon): 30.1 nM | TGI (COLO 205 colon): 86.8 nM | GI50 (ACHN renal): 256 nM | TGI (ACHN renal): 1040 nM | GI50 (SF-268 CNS): 122 nM | TGI (SF-268 CNS): 377 nM | GI50 (OVCAR-8 ovarian): 189 nM | TGI (OVCAR-8 ovarian): 963 nM | GI50 (HOP-62 NSCLC): 104 nM | TGI (HOP-62 NSCLC): 355 nM | GI50 (HCT-15 colon): 335 nM | TGI (HCT-15 colon): 1370 nM | GI50 (NCI-H226 lung): 14.4 nM | TGI (NCI-H226 lung): 218 nM | GI50 (HCC-2998 colon): 198 nM | TGI (HCC-2998 colon): 553 nM | GI50 (MALME-3M melanoma): 89.7 nM | TGI (MALME-3M melanoma): 299 nM | GI50 (NCI-H522 lung): 122 nM | TGI (NCI-H522 lung): 280 nM | GI50 (PC-3 prostate): 161 nM | TGI (PC-3 prostate): 1160 nM | GI50 (786-0 renal): 235 nM | TGI (786-0 renal): 712 nM | GI50 (CAKI-1 renal): 128 nM | TGI (CAKI-1 renal): 484 nM | GI50 (UACC-257 melanoma): 361 nM | TGI (UACC-257 melanoma): 4380 nM | GI50 (MDA-MB-231 breast): 42.3 nM | TGI (MDA-MB-231 breast): 289 nM | GI50 (OVCAR-3 ovarian): 125 nM | TGI (OVCAR-3 ovarian): 509 nM | GI50 (OVCAR-4 ovarian): 138 nM | TGI (OVCAR-4 ovarian): 646 nM | GI50 (UO-31 renal): 1190 nM | TGI (UO-31 renal): 2930 nM | GI50 (HCT-116 colon): 48.6 nM | TGI (HCT-116 colon): 640 nM | GI50 (NCI/ADR-RES ovarian): 2780 nM | TGI (NCI/ADR-RES ovarian): 17100 nM | GI50 (SK-MEL-5 melanoma): 193 nM | TGI (SK-MEL-5 melanoma): 556 nM | GI50 (NCI-H23 lung): 108 nM | TGI (NCI-H23 lung): 265 nM | GI50 (HS 578T breast): 28.8 nM | TGI (HS 578T breast): 398 nM | GI50 (SNB-19 CNS): 222 nM | TGI (SNB-19 CNS): 769 nM | GI50 (U251 CNS): 216 nM | TGI (U251 CNS): 879 nM | GI50 (DU-145 prostate): 148 nM | TGI (DU-145 prostate): 557 nM | GI50 (T-47D breast): 323 nM | TGI (T-47D breast): 3140 nM | GI50 (M14 melanoma): 78.4 nM | TGI (M14 melanoma): 245 nM | GI50 (A498 renal): 269 nM | TGI (A498 renal): 475 nM | GI50 (LOX IMVI melanoma): 55.4 nM | TGI (LOX IMVI melanoma): 187 nM | GI50 (A549 NSCLC): 138 nM | TGI (A549 NSCLC): 1010 nM | GI50 (HT29 colon): 87.9 nM | TGI (HT29 colon): 415 nM | GI50 (SNB-75 CNS): 126 nM | TGI (SNB-75 CNS): 300 nM | GI50 (NCI-H460 lung): 104 nM | TGI (NCI-H460 lung): 374 nM | GI50 (MOLT-4 leukemia): 26.6 nM | TGI (MOLT-4 leukemia): 919 nM | GI50 (SN12C renal): 34 nM | TGI (SN12C renal): 271 nM | GI50 (UACC-62 melanoma): 156 nM | TGI (UACC-62 melanoma): 539 nM | GI50 (SK-OV-3 ovarian): 274 nM | TGI (SK-OV-3 ovarian): 713 nM | GI50 (K-562 leukemia): < 9.7 nM | TGI (K-562 leukemia): 10100 nM | GI50 (BT-549 breast): 169 nM | TGI (BT-549 breast): 631 nM | GI50 (SR leukemia): 99.2 nM | TGI (SR leukemia): 7320 nM | GI50 (KM12 colon): < 9.7 nM | TGI (KM12 colon): 761 nM | GI50 (TK-10 renal): 245 nM | TGI (TK-10 renal): 646 nM | GI50 (MDA-MB-468 breast): 60 nM | TGI (MDA-MB-468 breast): 194 nM | GI50 (EKVX NSCLC): 120 nM | TGI (EKVX NSCLC): 383 nM | GI50 (OVCAR-5 ovarian): 202 nM | TGI (OVCAR-5 ovarian): 618 nM | GI50 (RXF 393 renal): 71.3 nM | TGI (RXF 393 renal): 217 nM | GI50 (MDA-MB-435): 113 nM | TGI (MDA-MB-435): 338 nM | GI50 (SF-539 CNS): 19.3 nM | TGI (SF-539 CNS): 74.2 nM | GI50 (CCRF-CEM leukemia): < 9.7 nM | TGI (CCRF-CEM leukemia): 356 nM | GI50 (IGROV1 ovarian): 107 nM | TGI (IGROV1 ovarian): 531 nM
